Results published in PMC9482650, “Quantitative fragmentomics allow affinity mapping of interactomes” (Nature Communications, 2022).
Where two headings read alike, the source gives them in different places. Numbered stars: 1 amine (or outer) side, 2 acyl side, 3 side chain; on linkers, the order of the positions; unused ones are H or OH. Ends that are not written are not given here. Peptide text beside a SMILES is read from it. * marks the point of attachment. X1 = O=C(CCCC[C@@H]1SC[C@@H]2NC(=O)N[C@@H]21)NCCCOCCOCCOCCCN*; Suc = O=C(CCC(=O)[*:2])[*:1]

Legend:
MAGI2_2 PDZ = MAGI2_2 PDZ (Homo sapiens, UniProt Q86UL8); assay: Competitive fluorescence polarization (FP) assay; type: binding; conditions: read-out: pKd FP (converted)
Chain of MAGI2_2 PDZ (Q86UL8 426-510 limits assumed): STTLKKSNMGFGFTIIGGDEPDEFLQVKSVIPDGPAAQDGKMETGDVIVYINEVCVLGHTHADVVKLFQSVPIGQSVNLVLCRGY

DLG4_3 PDZ = DLG4_3 PDZ (Homo sapiens, UniProt P78352); assay: Competitive fluorescence polarization (FP) assay; type: binding; conditions: read-out: pKd FP (converted)
Chain of DLG4_3 PDZ (P78352 313-393 limits assumed): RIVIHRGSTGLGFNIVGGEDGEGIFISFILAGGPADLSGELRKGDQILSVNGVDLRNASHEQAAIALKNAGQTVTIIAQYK

SCRIB2 PDZ = target: T1, SCRIB2 PDZ (Homo sapiens, UniProt Q14160); assay: Holdup assay; type: binding
T1 sequence (Q14160 862-950 limits assumed): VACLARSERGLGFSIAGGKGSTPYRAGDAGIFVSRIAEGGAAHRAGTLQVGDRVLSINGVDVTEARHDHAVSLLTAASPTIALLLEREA

SNX27 PDZ = SNX27 PDZ (Homo sapiens, UniProt Q96L92); assay: Holdup assay; type: binding
SCRIB_1 PDZ = SCRIB_1 PDZ (Homo sapiens, UniProt Q14160); assay: Holdup assay; type: binding
Chain of SCRIB_1 PDZ (Q14160 728-815 limits assumed): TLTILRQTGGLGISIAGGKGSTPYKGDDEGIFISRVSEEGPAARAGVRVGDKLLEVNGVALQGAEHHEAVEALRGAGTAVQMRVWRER

TX1BP3 PDZ = target: T2, TX1BP3 PDZ (Homo sapiens, UniProt O14907); assay: Holdup assay; type: binding
T2 sequence (O14907 15-112 limits assumed): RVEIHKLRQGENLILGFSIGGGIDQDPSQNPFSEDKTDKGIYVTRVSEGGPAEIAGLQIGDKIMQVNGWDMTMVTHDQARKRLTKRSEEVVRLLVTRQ

DLG1_2 PDZ = DLG1_2 PDZ (Homo sapiens, UniProt Q12959); assay: Holdup assay; type: binding
DLG1_1 PDZ = DLG1_1 PDZ (Homo sapiens, UniProt Q12959); assay: Holdup assay; type: binding
HaCat cell extract preys = assay: PDZ-AP-MS, biotinylated MBP-PDZ baits; type: binding, human; conditions: for Difference log2: enrichment of prey
Procedure: (§1) For PDZ-AP-MS experiments, PDZ domains were cloned as His6-AviTag-MBP-PDZ constructs. For co-expression with BirA, E. coli BL21(DE3) cells were co-transformed with His6-AviTag-MBP, or His6-AviTag-MBP-PDZ-coding and PET21a-BirA (Addgene #20857) plasmids. Simultaneously to IPTG induction, 50 µM biotin was added to the media. After cell harvesting, the lysis buffer was also supplemented with 50 µM biotin. Otherwise, expression and double affinity purification was identical as previously described in details.
(§2) For PBM-AP-MS experiments, 30 μl streptavidin resin was mixed with biotin or peptide at 50–60 μM concentration in 6–6.5 resin volume for 60 min to achieve resin saturation. For PDZ-AP-MS experiments, 30 μl streptavidin resin was mixed with biotinylated MBP or MBP-PDZ at 40-50 μM concentration in >1000× resin volume for 60 min to achieve resin saturation. After saturation, resins were washed a single time (ten resin volume, holdup buffer), and were depleted with biotin (1 mM biotin, 5–10 resin volume, 10 min). Finally, resins were washed two times. 0.5 ml 2 mg/ml cell lysate was added to the dry resin (1 mg total input) and were incubated at 4 °C for 2 h. Then, the beads were washed three times with 10 resin volume buffer containing: 50 mM TRIS pH 8.5, 150 mM NaCl, 1% TritonX-100, 10× complete EDTA-free protease inhibitor cocktail, 2 mM EDTA, 1 mM TCEP. Then, the beads were washed two times with ten resin volume buffer containing: 50 mM TRIS pH 8.5, 150 mM NaCl, 1 mM TCEP. Finally, captured protein was eluted from the resin in two steps and the eluted fractions were pooled. For each elution the beads were incubated for 30 min with three resin volume buffer containing: 20 mM TRIS pH8.5, 100 mM NaCl, 500 μM TCEP, 8 M Urea. Between each step, the beads were separated by mild centrifugation and the supernatant was removed by gentle pipetting.
(§3) The samples were precipitated with TCA 20% overnight at 4 °C and centrifuged at 14,000 rpm for 10 min at 4 °C. The protein pellets were washed twice with 1 mL cold acetone and air dried. The protein extracts were solubilized in urea 8 M, reduced with 5 mM TCEP for 30 min, and alkylated with 10 mM iodoacetamide for 30 min in the dark. Double digestion was performed at 37 °C with 500 ng endoproteinase Lys-C for 4 h, followed by fourfold dilution and an overnight digestion with 500 ng trypsin. Peptide mixtures were then desalted on C18 spin-column and dried on Speed-Vacuum.
(§4) Samples were analyzed using an Ultimate 3000 nano-RSLC (Thermo Scientific, San Jose California) coupled in line with a LTQ-Orbitrap ELITE mass spectrometer via a nano-electrospray ionization source (Thermo Scientific, San Jose California). Peptide mixtures were injected in 0.1% TFA on a C18 Acclaim PepMap100 trap-column (75 µm ID × 2 cm, 3 µm, 100 Å, Thermo Fisher Scientific) for 3 min at 5 µL/min with 2% ACN, 0.1% FA in H2O and then separated on a C18 Accucore nano-column (75 µm ID × 50 cm, 2.6 µm, 150 Å, Thermo Fisher Scientific) at 220 nl/min and 38 °C with a 90 min linear gradient from 5% to 30% buffer B (A: 0.1% FA in H2O/B: 99% ACN, 0.1% FA in H2O), regeneration at 5% B. The mass spectrometer was operated in positive ionization mode, in data-dependent mode with survey scans from m/z 350–1500 acquired in the Orbitrap at a resolution of 120,000 at m/z 400. The 20 most intense peaks from survey scans were selected for further fragmentation in the Linear Ion Trap with an isolation window of 2.0 Da and were fragmented by CID with normalized collision energy of 35%. (TOP20CID method) Unassigned and single charged states were excluded from fragmentation. The Ion Target Value for the survey scans (in the Orbitrap) and the MS2 mode (in the Linear Ion Trap) were set to 1E6 and 5E3 respectively and the maximum injection time was set to 100 ms for both scan modes. Dynamic exclusion was set to 20 s after one repeat count with mass width at ±10 ppm. […]

HeLa cell extract preys = assay: PDZ-AP-MS, biotinylated MBP-PDZ baits; type: binding, human; conditions: for Ratio: fold enrichment of prey; for Difference: log2 enrichment of prey
Procedure: as §1, §2, §3, §4

SYNJ2BP PDZ = target: T3, SYNJ2BP PDZ (Homo sapiens, UniProt P57105); assay: Holdup assay; type: binding
T3 sequence (P57105 13-100 limits assumed): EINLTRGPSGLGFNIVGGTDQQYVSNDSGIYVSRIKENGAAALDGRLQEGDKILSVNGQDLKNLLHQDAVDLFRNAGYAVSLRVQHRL

[1] = tested on: Jurkat cell extract preys; assay: PDZ-AP-MS, biotinylated MBP-PDZ baits; type: binding, human; conditions: for Difference log2: enrichment of prey
Procedure: as §1, §2, §3, §4

[2] = PBM motif of the named protein vs SCRIB_2 PDZ, read-out: pKd values – domain-motif, SCRIB_2 (converted)
[3] = PBM motif of the named protein vs SCRIB_1 PDZ, read-out: pKd values – domain-motif, SCRIB_1 (converted)
[4] = PBM motif of the named protein vs TX1BP3 PDZ, read-out: pKd values – domain-motif, TX1BP3 (converted)
[5] = PBM motif of the named protein vs DLG1_2 PDZ, read-out: pKd values – domain-motif, DLG1_2 (converted)
[6] = PBM motif of the named protein vs DLG1_1 PDZ, read-out: pKd values – domain-motif, DLG1_1 (converted)
[7] = bait SCRIB_2 PDZ, fold change of prey
[8] = holdup affinity of the PBM peptide of the named protein, sheet PBMcomplexome, lower sub-table
[9] = holdup affinity of the PBM peptide of the named protein, sheet PBMcomplexome, lower sub-table, 3.5 appears to be the floor for no detectable binding, read-out: affinity of PBM to TX1BP3 (pKd) (converted)
[10] = holdup affinity of the PBM peptide of the named protein, sheet PBMcomplexome, lower sub-table, 3.5 appears to be the floor for no detectable binding, read-out: affinity of PBM to DLG1_2 (pKd) (converted)
[11] = bait SCRIB_1 PDZ, fold change of prey

CC(C)C[C@H](NC(=O)[C@H](CCC(N)=O)NC(=O)[C@@H](NC(=O)[C@H](CCC(=O)O)NC(=O)[C@H](CCC(=O)O)NC(=O)[C@H](CCCNC(=N)N)NC(=O)[C@H](CO)NC(=O)[C@H](CC(=O)O)NC(=O)[C@H](CCC(N)=O)NC(=O)CNC(=O)CCC(=O)NCCCOCCOCCOCCCNC(=O)CCCC[C@@H]1SC[C@@H]2NC(=O)N[C@@H]21)[C@@H](C)O)C(=O)O [KCNT2] ({X1-Suc}-GQDSREETQL-OH)
Kd (MAGI2_2 PDZ): 248 µM
Kd (DLG4_3 PDZ): 241 µM

ATKDKKITTV [EXOC4]
Kd (SCRIB2 PDZ; [2]): 324 µM
Kd (SNX27 PDZ): 41.7 µM
Kd (SCRIB_1 PDZ; [3]): 141 µM
Kd (TX1BP3 PDZ; [4]): 123 µM
Kd (DLG1_2 PDZ; [5]): 1.23 µM
Kd (DLG1_1 PDZ; [6]): 8.91 µM

EKQAKGDTEF [CACYBP]
Kd (SNX27 PDZ): 209 µM

EPRS1
Difference log2 (HaCat cell extract preys; bait SCRIB_2 PDZ vs MBP): 4.198
Ratio SCRIB_2/MBP (HaCat cell extract preys; [7]): 18.3552

GFGEERESIL [KIDINS220]
Kd (SNX27 PDZ; [8]): 2.57 µM
Kd (TX1BP3 PDZ; [9]): 186 µM
Kd (DLG1_2 PDZ; [10]): 132 µM

IDNDTESTAL [ARHGAP17]
Kd (SCRIB2 PDZ; [2]): 245 µM
Kd (SNX27 PDZ): 10.7 µM
Kd (SCRIB_1 PDZ; [3]): 12.3 µM

IQREDQETAV [DGKZ]
Kd (SCRIB2 PDZ; holdup affinity of the PBM peptide of the named protein, sheet PBMcomplexome, lower sub-table, 3.5 appears to be the floor for no detectable binding, read-out: affinity of PBM to SCRIB_2 (pKd) (converted)): 13.8 µM
Kd (SNX27 PDZ; [8]): 1 µM
Kd (SCRIB_1 PDZ; holdup affinity of the PBM peptide of the named protein, sheet PBMcomplexome, lower sub-table, 3.5 appears to be the floor for no detectable binding, read-out: affinity of PBM to SCRIB_1 (pKd) (converted)): 19.5 µM
Kd (TX1BP3 PDZ; [9]): 66.1 µM
Kd (DLG1_2 PDZ; [10]): 6.92 µM
Kd (DLG1_1 PDZ; holdup affinity of the PBM peptide of the named protein, sheet PBMcomplexome, lower sub-table, 3.5 appears to be the floor for no detectable binding, read-out: affinity of PBM to DLG1_1 (pKd) (converted)): 18.6 µM

KKYVDAETSL [SLC4A7]
Kd (SCRIB2 PDZ; [2]): 170 µM
Kd (SNX27 PDZ): 1.95 µM
Kd (SCRIB_1 PDZ; [3]): 2.88 µM
Kd (TX1BP3 PDZ; [4]): 151 µM
Kd (DLG1_2 PDZ; [5]): 275 µM

LSEFKAMDSI [CTNNA1]
Kd (TX1BP3 PDZ; [4]): 339 µM

PLEC
Ratio (HeLa cell extract preys; bait TX1BP3 PDZ vs MBP control): 24.4238
Difference (HeLa cell extract preys; bait TX1BP3 PDZ vs MBP control): 4.61

QPRTWLQSPV [RTKN]
Kd (SNX27 PDZ): 49 µM
Kd (SCRIB_1 PDZ; [3]): 204 µM
Kd (TX1BP3 PDZ; [4]): 0.891 µM
Kd (DLG1_2 PDZ; [5]): 50.1 µM
Kd (DLG1_1 PDZ; [6]): 182 µM

QRQARSETLV [HPV59E6]
Kd (SYNJ2BP PDZ): 15.4 µM

SCRIB
Difference (HeLa cell extract preys; bait SCRIB_2 PDZ (biotinylated MBP-PDZ) vs MBP control): 6.449
Ratio (HeLa cell extract preys; bait SCRIB_2 PDZ vs MBP control): 87.3698
Difference log2 ([1]; bait SCRIB_1 PDZ vs MBP): 8.3787
Ratio SCRIB_1/MBP [1, 11]: 332.843
Difference log2 ([1]; bait SCRIB_2 PDZ vs MBP): 8.333
Ratio SCRIB_2/MBP [1, 7]: 322.542
Difference log2 (HaCat cell extract preys; bait SCRIB_1 PDZ vs MBP): 13.0145
Ratio SCRIB_1/MBP (HaCat cell extract preys; [11]): 8274.77

SEKHFRETEV [HTLV1 Tax1]
Kd (SYNJ2BP PDZ): 0.912 µM

SRPHTNETSL [MCC]
Kd (SCRIB2 PDZ; [2]): 52.5 µM
Kd (SNX27 PDZ): 1.91 µM
Kd (SCRIB_1 PDZ; [3]): 5.5 µM
Kd (TX1BP3 PDZ; [4]): 75.9 µM
Kd (DLG1_2 PDZ; [5]): 64.6 µM
Kd (DLG1_1 PDZ; [6]): 191 µM

TVASEKESVM [SLC1A5]
Kd (SNX27 PDZ): 5.13 µM
Kd (SCRIB_1 PDZ; [3]): 6.31 µM
Kd (TX1BP3 PDZ; [4]): 204 µM

VKPQVSESKL [ACOT8]
Kd (SCRIB2 PDZ; [2]): 302 µM
Kd (SNX27 PDZ): 4.57 µM
Kd (SCRIB_1 PDZ; [3]): 47.9 µM
